ChEMBL document CHEMBL5500371, “Arginine and tryptophan-rich dendritic antimicrobial peptides that disrupt membranes for bacterial infection in vivo” (Eur J Med Chem, 2024)
In brackets after ≈: the same amount, converted by molar mass. Where a SMILES comes first, the peptide text is derived from it. Side-chain parts run from the residue outwards.

Legend:
Erythrocyte = assay: Hemolytic activity in mouse erythrocytes assessed as 10% hemolysis incubated for 1 hr by absorbance based analysis; format: toxicity, cell-based
Klebsiella pneumoniae = assay: Antibacterial activity against Klebsiella pneumoniae ATCC 700603 assessed as inhibition of bacterial growth incubated for 20 hrs by broth microdilution method; format: functional
[1] = Cytotoxicity against HEK293T cells assessed as cell death measured after 1 hr by resazurin dye based analysis; format: toxicity, HEK-293T; settings: human, HEK293T cells
Pseudomonas aeruginosa = assay: Antibacterial activity against Pseudomonas aeruginosa ATCC 27853 assessed as inhibition of bacterial growth incubated for 20 hrs by broth microdilution method; format: functional
Escherichia coli = assay: Antibacterial activity against Escherichia coli ATCC 25922 assessed as inhibition of bacterial growth incubated for 20 hrs by broth microdilution method; format: functional
Staphylococcus aureus = assay: Antibacterial activity against Staphylococcus aureus ATCC 25923 assessed as inhibition of bacterial growth incubated for 20 hrs by broth microdilution method; format: functional
Bacillus subtilis = assay: Antibacterial activity against Bacillus subtilis ATCC 23857 assessed as inhibition of bacterial growth incubated for 20 hrs by broth microdilution method; format: functional
Acinetobacter baumannii = assay: Antibacterial activity against Acinetobacter baumannii ATCC 19606 assessed as inhibition of bacterial growth incubated for 20 hrs by broth microdilution method; format: functional

Row | MIC (Klebsiella pneumoniae) [µM] | MIC (Pseudomonas aeruginosa) [µM] | MIC (Escherichia coli) [µM] | MIC (Staphylococcus aureus) [µM] | MIC (Bacillus subtilis) [µM] | MIC (Acinetobacter baumannii) [µM] | Structure (SMILES) | MHC10 (Erythrocyte) [µM] | CC50 at 1 h [1] [µM]
1 | 16 (≈ 32.2 µg/mL) | 16 (≈ 32.2 µg/mL) | 16 (≈ 32.2 µg/mL) | 16 (≈ 32.2 µg/mL) | 8 (≈ 16.1 µg/mL) | 32 (≈ 64.4 µg/mL) | N=C(N)NCCC[C@H](NC(=O)[C@H](CCCNC(=N)N)NC(=O)[C@@H](N)CCCNC(=N)N)C(=O)NCCCC[C@H](NC(=O)[C@H](CCCNC(=N)N)NC(=O)[C@H](CCCNC(=N)N)NC(=O)[C@@H](N)CCCNC(=N)N)C(=O)N[C@@H](Cc1c[nH]c2ccccc12)C(=O)N[C@@H](Cc1c[nH]c2ccccc12)C(=O)N[C@@H](Cc1c[nH]c2ccccc12)C(=O)N[C@@H](Cc1c[nH]c2ccccc12)C(=O)N[C@@H](Cc1c[nH]c2ccccc12)C(N)=O | 91.08 | 41.4
2 | 64 (≈ 151 µg/mL) | 16 (≈ 37.7 µg/mL) | 32 (≈ 75.4 µg/mL) | 16 (≈ 37.7 µg/mL) | 16 (≈ 37.7 µg/mL) | 32 (≈ 75.4 µg/mL) | N=C(N)NCCC[C@H](NC(=O)[C@H](CCCNC(=N)N)NC(=O)[C@H](CCCNC(=N)N)NC(=O)[C@H](CCCNC(=N)N)NC(=O)[C@H](CCCNC(=N)N)NC(=O)[C@H](CCCNC(=N)N)NC(=O)[C@H](CCCNC(=N)N)NC(=O)[C@H](CCCCNC(=O)[C@H](Cc1c[nH]c2ccccc12)NC(=O)[C@H](Cc1c[nH]c2ccccc12)NC(=O)[C@@H](N)Cc1c[nH]c2ccccc12)NC(=O)[C@H](Cc1c[nH]c2ccccc12)NC(=O)[C@H](Cc1c[nH]c2ccccc12)NC(=O)[C@@H](N)Cc1c[nH]c2ccccc12)C(N)=O | 17.53 | 41.9
3 | > 128 | > 128 | > 128 | > 128 | > 128 | > 128 | N=C(N)NCCC[C@H](N)C(=O)NCCCC[C@H](NC(=O)[C@@H](N)CCCNC(=N)N)C(=O)N[C@@H](Cc1c[nH]c2ccccc12)C(N)=O (H-Arg-Lys(Arg)-Trp-NH2) | > 256 | > 128
4 | > 128 | > 128 | > 128 | > 128 | 128 (≈ 106 µg/mL) | > 128 | N=C(N)NCCC[C@H](N)C(=O)NCCCC[C@H](NC(=O)[C@@H](N)CCCNC(=N)N)C(=O)N[C@@H](Cc1c[nH]c2ccccc12)C(=O)N[C@@H](Cc1c[nH]c2ccccc12)C(N)=O (H-RK(Arg)WW-NH2) | > 256 | > 128
5 | > 128 | 32 (≈ 32.5 µg/mL) | > 128 | 32 (≈ 32.5 µg/mL) | 32 (≈ 32.5 µg/mL) | > 128 | N=C(N)NCCC[C@H](N)C(=O)NCCCC[C@H](NC(=O)[C@@H](N)CCCNC(=N)N)C(=O)N[C@@H](Cc1c[nH]c2ccccc12)C(=O)N[C@@H](Cc1c[nH]c2ccccc12)C(=O)N[C@@H](Cc1c[nH]c2ccccc12)C(N)=O (H-RK(Arg)WWW-NH2) | > 256 | > 128
6 | 64 (≈ 85 µg/mL) | 16 (≈ 21.3 µg/mL) | 16 (≈ 21.3 µg/mL) | 16 (≈ 21.3 µg/mL) | 4 (≈ 5.31 µg/mL) | > 128 | N=C(N)NCCC[C@H](NC(=O)[C@@H](N)CCCNC(=N)N)C(=O)NCCCC[C@H](NC(=O)[C@H](CCCNC(=N)N)NC(=O)[C@@H](N)CCCNC(=N)N)C(=O)N[C@@H](Cc1c[nH]c2ccccc12)C(=O)N[C@@H](Cc1c[nH]c2ccccc12)C(=O)N[C@@H](Cc1c[nH]c2ccccc12)C(N)=O (H-RRK([Arg-Arg])WWW-NH2) | > 256 | > 128
7 | 16 (≈ 27.2 µg/mL) | 16 (≈ 27.2 µg/mL) | 16 (≈ 27.2 µg/mL) | 16 (≈ 27.2 µg/mL) | 8 (≈ 13.6 µg/mL) | 32 (≈ 54.4 µg/mL) | N=C(N)NCCC[C@H](NC(=O)[C@@H](N)CCCNC(=N)N)C(=O)NCCCC[C@H](NC(=O)[C@H](CCCNC(=N)N)NC(=O)[C@@H](N)CCCNC(=N)N)C(=O)N[C@@H](Cc1c[nH]c2ccccc12)C(=O)N[C@@H](Cc1c[nH]c2ccccc12)C(=O)N[C@@H](Cc1c[nH]c2ccccc12)C(=O)N[C@@H](Cc1c[nH]c2ccccc12)C(=O)N[C@@H](Cc1c[nH]c2ccccc12)C(N)=O (H-RRK([Arg-Arg])WWWWW-NH2) | 51.32 | 58.8
8 | > 128 | > 128 | > 128 | > 128 | > 128 | > 128 | N=C(N)NCCC[C@H](NC(=O)[C@@H](N)CCCNC(=N)N)C(=O)N[C@@H](CCCCN)C(=O)N[C@@H](Cc1c[nH]c2ccccc12)C(N)=O (H-RRKW-NH2) | > 256 | > 128
9 | 32 (≈ 70.4 µg/mL) | 32 (≈ 70.4 µg/mL) | 32 (≈ 70.4 µg/mL) | 32 (≈ 70.4 µg/mL) | 16 (≈ 35.2 µg/mL) | 32 (≈ 70.4 µg/mL) | N=C(N)NCCC[C@H](NC(=O)[C@H](CCCNC(=N)N)NC(=O)[C@@H](N)CCCNC(=N)N)C(=O)NCCCC[C@H](NC(=O)[C@H](CCCNC(=N)N)NC(=O)[C@H](CCCNC(=N)N)NC(=O)[C@@H](N)CCCNC(=N)N)C(=O)N[C@@H](Cc1c[nH]c2ccccc12)C(=O)N[C@@H](Cc1c[nH]c2ccccc12)C(=O)N[C@@H](Cc1c[nH]c2ccccc12)C(=O)N[C@@H](Cc1c[nH]c2ccccc12)C(=O)N[C@@H](Cc1c[nH]c2ccccc12)C(=O)N[C@@H](Cc1c[nH]c2ccccc12)C(N)=O (H-RRRK([Arg-Arg-Arg])WWWWWW-NH2) | 22.12 | 34
10 | 64 (≈ 153 µg/mL) | 16 (≈ 38.2 µg/mL) | 64 (≈ 153 µg/mL) | 32 (≈ 76.3 µg/mL) | 16 (≈ 38.2 µg/mL) | 16 (≈ 38.2 µg/mL) | N=C(N)NCCC[C@H](NC(=O)[C@H](CCCNC(=N)N)NC(=O)[C@@H](N)CCCNC(=N)N)C(=O)NCCCC[C@H](NC(=O)[C@H](CCCNC(=N)N)NC(=O)[C@H](CCCNC(=N)N)NC(=O)[C@@H](N)CCCNC(=N)N)C(=O)N[C@@H](Cc1c[nH]c2ccccc12)C(=O)N[C@@H](Cc1c[nH]c2ccccc12)C(=O)N[C@@H](Cc1c[nH]c2ccccc12)C(=O)N[C@@H](Cc1c[nH]c2ccccc12)C(=O)N[C@@H](Cc1c[nH]c2ccccc12)C(=O)N[C@@H](Cc1c[nH]c2ccccc12)C(=O)N[C@@H](Cc1c[nH]c2ccccc12)C(N)=O (H-RRRK([Arg-Arg-Arg])WWWWWWW-NH2) | 12.98 | 53.5
11 | > 128 | > 128 | > 128 | > 128 | 128 (≈ 86.2 µg/mL) | > 128 | N=C(N)NCCC[C@H](NC(=O)[C@H](CCCCNC(=O)[C@@H](N)Cc1c[nH]c2ccccc12)NC(=O)[C@@H](N)Cc1c[nH]c2ccccc12)C(N)=O (H-Trp-Lys(Trp)-Arg-NH2) | > 256 | > 128
12 | > 128 | > 128 | > 128 | > 128 | > 128 | > 128 | N=C(N)NCCC[C@H](NC(=O)[C@H](CCCNC(=N)N)NC(=O)[C@H](CCCCNC(=O)[C@@H](N)Cc1c[nH]c2ccccc12)NC(=O)[C@@H](N)Cc1c[nH]c2ccccc12)C(N)=O (H-WK(Trp)RR-NH2) | > 256 | > 128

Row | Structure (SMILES) | MIC (Klebsiella pneumoniae) [µM] | MIC (Pseudomonas aeruginosa) [µM] | MIC (Escherichia coli) [µM] | MIC (Staphylococcus aureus) [µM] | MIC (Bacillus subtilis) [µM] | MIC (Acinetobacter baumannii) [µM] | MHC10 (Erythrocyte) [µM] | CC50 at 1 h [1] [µM]
13 | CN[C@H](CC(C)C)C(=O)N[C@H]1C(=O)N[C@@H](CC(N)=O)C(=O)N[C@H]2C(=O)N[C@H]3C(=O)N[C@H](C(=O)N[C@H](C(=O)O)c4cc(O)cc(O)c4-c4cc3ccc4O)[C@H](O)c3ccc(c(Cl)c3)Oc3cc2cc(c3O[C@@H]2O[C@H](CO)[C@@H](O)[C@H](O)[C@H]2O[C@H]2C[C@](C)(N)[C@H](O)[C@H](C)O2)Oc2ccc(cc2Cl)[C@H]1O [VANCOMYCIN] | 128 (≈ 186 µg/mL) | > 128 | 64 (≈ 92.8 µg/mL) | < 1 | < 1 | 64 (≈ 92.8 µg/mL) | – | –
